Experimental data published in US4298529A, “Alkoxyimino dioxy butyric acid derivatives” (Fujisawa Pharmaceutical Co., Ltd., priority 1978, dated 1981).
In brackets after ≈: the same amount, converted by molar mass. Like-named read-outs stand apart in the source and are kept apart here.

Experiments:
Serratia Marcescens 58 [1] = assay: Protecting effect against experimental infections in mice; assay type: in vivo; conditions: sc, 96 h, ICR mice, i.p. challenge 1.2 × 10^7 cells/mouse, s.c. two divisional doses at 1 hr. and 3 hrs. after infection
Protocol: (§1) Male ICR strain mice aged 4 weeks, each weighing 18.5-21.5 g. were used in groups of 10 mice. The test bacteria were cultured overnight at 37° C. on Trypticase-soy agar and then suspended in 5% mucin to obtain the suspension corresponding to each challenge cells. Mice were inoculated intraperitoneally with 0.5 ml. of the suspension. A solution of test compound was given subcutaneously to the mice in various dosage one hour after the challenge. The ED50 values were calculated from the number of surviving mice for each dosage after four days of observation.
^*3 treated with two divisional doses at 1 hr. and 3 hrs. after […]

Serratia Marcescens 58 [2] = assay: MIC against the infecting strain; assay type: cell-based; conditions: 20 h
Protocol: (§2) In vitro antibacterial activity was determined by the two-fold agar-plate dilution method as described below.
(§3) One loopful of the 100-fold dilution of an overnight culture of each test strain in Trypticase-soy broth was streaked on heart infusion agar (HI-agar) containing graded concentrations of the test compound and incubated at 37° C. for 20 hours. The minimal inhibitory concentration (MIC) was expressed in μg/ml.
(§4) ^*2 100fold dilution of the overnight

Escherichia coli 54 [3] = assay: MIC against the infecting strain; assay type: cell-based; conditions: Escherichia coli, 54, 20 h
Protocol: as §2, §3, §4

Klebsiella pneumoniae 39 [4] = assay: MIC against the infecting strain; assay type: cell-based; conditions: Klebsiella pneumoniae, 39, 20 h
Protocol: as §2, §3, §4

Proteus rettgeri 24 [5] = assay: MIC against the infecting strain; assay type: cell-based; conditions: Providencia rettgeri, 24, 20 h
Protocol: as §2, §3, §4

Escherichia coli 54 [6] = assay: Protecting effect against experimental infections in mice; assay type: in vivo; conditions: Escherichia coli, 54, sc, 96 h; ICR mice, i.p. challenge 1.1 × 10^7 cells/mouse, s.c. one hour after challenge, survival after four days
Protocol: as §1

Klebsiella pneumoniae 39 [7] = assay: as above; assay type: in vivo; conditions: Klebsiella pneumoniae, 39, sc, 96 h; ICR mice, i.p. challenge 8 × 10^6 cells/mouse, s.c. one hour after challenge, survival after four days
Protocol: as §1

Proteus rettgeri 24 [8] = assay: as above; assay type: in vivo; conditions: Providencia rettgeri, 24, sc, 96 h; ICR mice, i.p. challenge 9.9 × 10^6 cells/mouse, s.c. one hour after challenge, survival after four days
Protocol: as §1

Klebsiella pneumoniae 20 = assay: In vitro antibacterial activity, two-fold agar-plate dilution method; assay type: cell-based; conditions: HI-agar, 37° C., 20 hours, 100-fold diluted overnight culture
Protocol: as §3, with “In vitro antibacterial activity was determined by the two-fold agar-plate dilution method as described below. One” for “One”

[9] = tested on: Proteus vulgaris IAM-1025; assay: as above; assay type: cell-based; conditions: IAM1025, HI-agar, 37° C., 20 hours, 100-fold diluted overnight culture
Protocol: as §3, with “In vitro antibacterial activity was determined by the two-fold agar-plate dilution method as described below. One” for “One”

[10] = tested on: Staphylococcus aureus 209P JC-1; assay: as above; assay type: cell-based; conditions: HI-agar, 37° C., 20 hours, 100-fold diluted overnight culture
Protocol: as §3, with “In vitro antibacterial activity was determined by the two-fold agar-plate dilution method as described below. One” for “One”

Serratia marcescens 35 = assay: as above; assay type: cell-based; conditions: HI-agar, 37° C., 20 hours, 100-fold diluted overnight culture
Protocol: as §3, with “In vitro antibacterial activity was determined by the two-fold agar-plate dilution method as described below. One” for “One”

[11] = tested on: Escherichia coli. NIHJ JC-2; assay: as above; assay type: cell-based; conditions: NIHJJC2, HI-agar, 37° C., 20 hours, 100-fold diluted overnight culture
Protocol: as §3, with “In vitro antibacterial activity was determined by the two-fold agar-plate dilution method as described below. One” for “One”

[12] = tested on: Pseudomonus aeruginosa NCTC-10490; assay: as above; assay type: cell-based; conditions: HI-agar, 37° C., 20 hours, 100-fold diluted overnight culture
Protocol: as §3, with “In vitro antibacterial activity was determined by the two-fold agar-plate dilution method as described below. One” for “One”

Proteus mirabilis 18 = assay: as above; assay type: cell-based; conditions: HI-agar, 37° C., 20 hours, 100-fold diluted overnight culture
Protocol: as §3, with “In vitro antibacterial activity was determined by the two-fold agar-plate dilution method as described below. One” for “One”

Acute toxicity in rats = assay: Acute toxicity in rats; design: species or system rat (ICL-SD strain); conditions: rat, in vivo, 7 days observation
Protocol: Ten male and 10 female rats aged 6 weeks (ICL-SD strain) were used per group. Test compound dissolved in distilled water was given subcutaneously and intravenously to the animals. […] The LD50 values were calculated from the number of dead animals by the Litchfield-Wilcoxon method.

[13] = inoculum size 10^0 (overnight culture), read-out: MIC
[14] = inoculum size 10^0 (overnight culture)
[15] = inoculum size 10^-2 (100fold dilution of the overnight culture)

Row | Compound | ED50 (Serratia Marcescens 58 [1]) [mg/kg] | MIC (Serratia Marcescens 58 [2]; [13]) [µg/mL] | MIC (Escherichia coli 54 [3]; [14]) [µg/mL] | MIC (Escherichia coli 54 [3]; [15]) [µg/mL] | MIC (Klebsiella pneumoniae 39 [4]; [14]) [µg/mL] | MIC (Klebsiella pneumoniae 39 [4]; [15]) [µg/mL] | MIC (Proteus rettgeri 24 [5]; [14]) [µg/mL] | MIC (Proteus rettgeri 24 [5]; [15]) [µg/mL] | ED50 (Escherichia coli 54 [6]) [mg/kg] | ED50 (Klebsiella pneumoniae 39 [7]) [mg/kg] | ED50 (Proteus rettgeri 24 [8]) [mg/kg] | also measured
1 | CO/N=C(\C(=O)NC1C(=O)N2C(C(=O)O)=CCSC12)c1csc(N)n1 (stereo not drawn) [Compound 1, 7-[2-(2-aminothiazol-4-yl)-2-methoxyiminoacetamido]-3-cephem-4-carboxylic acid (syn isomer)] | 3.56 | 25 (≈ 65.2 µM) | 0.78 (≈ 2.03 µM) | 0.05 (≈ 0.13 µM) | 0.39 (≈ 1.02 µM) | ≤ 0.025 | 1.56 (≈ 4.07 µM) | ≤ 0.025 | 0.95 | < 0.98 | 0.39 | MIC (Serratia Marcescens 58 [2]; inoculum size 10^-2 (100fold dilution of the overnight culture), read-out: MIC): 0.39 µg/mL (≈ 1.02 µM); MIC (Klebsiella pneumoniae 20): ≤ 0.025 µg/mL; MIC [9]: ≤ 0.025 µg/mL; MIC [10]: 6.25 µg/mL (≈ 16.3 µM); MIC (Serratia marcescens 35): 1.56 µg/mL (≈ 4.07 µM); MIC [11]: ≤ 0.025 µg/mL; MIC [12]: 0.39 µg/mL (≈ 1.02 µM); MIC (Proteus mirabilis 18): ≤ 0.025 µg/mL; LD50 at 168 h (Acute toxicity in rats; iv, female, i.v., read-out: LD50 i.v.): > 8000 mg/kg; LD50 at 168 h (Acute toxicity in rats; iv, male, i.v., read-out: LD50 i.v.): ~8000 mg/kg; LD50 at 168 h (Acute toxicity in rats; sc, female, s.c., read-out: LD50 s.c.): > 8000 mg/kg; LD50 at 168 h (Acute toxicity in rats; sc, male, s.c., read-out: LD50 s.c.): > 8000 mg/kg
2 | CO/N=C(\C(=O)NC1C(=O)N2C(C(=O)O)=C(COC(C)=O)CSC12)c1csc(N)n1 (stereo not drawn) [Reference, 7[2(2-Amino-4-thiazolyl)-2-methoxyiminoacetamido] cephalospolanic acid (syn isomer), reference compound] | 31.4 | 50 (≈ 110 µM) | 3.13 (≈ 6.87 µM) | 0.1 (≈ 0.22 µM) | 3.13 (≈ 6.87 µM) | 0.05 (≈ 0.11 µM) | 50 (≈ 110 µM) | 0.1 (≈ 0.22 µM) | 2.8 | 0.995 | 1.17 | MIC (Serratia Marcescens 58 [2]): 1.56 µg/mL (≈ 3.43 µM)
